Reference: patent US4062944A, “Mixture of antibiotics produced by new species of micromonospora” (Pfizer Inc., priority 1976, dated 1977)
≈ marks a conversion by molar mass, not a printed value. Like-named read-outs stand apart in the source and are kept apart here.

How the values were obtained:
[1] = tested on: S. aureus (multi-resistant); experiment: Minimal inhibitory concentration, nutrient broth tube dilution, S. aureus (multi-resistant); type: cell-based; details: Staphylococcus aureus
Description: (§1) These tests were run by preparing tubes of nutrient broth with gradually increasing concentrations of the pure antibiotic and then seeding the broths with the particular organism specified. […] The tests were conducted under standardized conditions as described in Proc. Soc. Exp. Biol. & Med. 122, ll07 (1966). Tables II and III illustrate the in vivo activity of these new antibiotics in experimentally infected mice.

Streptococci = experiment: In vivo activity in experimentally infected mice, Streptococci (PD50); details: Mus musculus, oral, read-out: PD50 (dose that provides 50% protection)
Description: as §1
(§2) *Dose that provides 50% protection?

Staphylococci = experiment: In vivo activity in experimentally infected mice, Staphylococci (PD50); details: Mus musculus, read-out: PD50 (dose that provides 50% protection)
Description: as §1, §2

M. tuber. H37Rv = experiment: Minimal inhibitory concentration, nutrient broth tube dilution, M. tuberculosis; type: cell-based; details: Mycobacterium tuberculosis
Description: as §1

Streptococcus pyogenes = experiment: Minimal inhibitory concentration, nutrient broth tube dilution, Streptococcus pyogenes; type: cell-based
Description: as §1

Diplococci = experiment: In vivo activity in experimentally infected mice, Diplococci (PD50); details: Mus musculus, oral, read-out: PD50 (dose that provides 50% protection)
Description: as §1, §2

M. tuberculosis = M. tuberculosis infection in mice, survival; type: in vivo; details: evaluated at 53 days post challenge; for Percent Survival: control 20; for Average Survival Time: control 37.7
Description: as §1
M. tuberculosis Infection in Mice
*Evaluated at 53 days post challenge

Staphylococcus aureus = experiment: Minimal inhibitory concentration, nutrient broth tube dilution, Staphylococcus aureus; type: cell-based
Description: as §1

[2] = Antibiotic properties of hexahydro derivatives compared with parent compounds; details: compared with the parent compound

Row | Molecule | MIC [1] [ng/mL] | ED50 (Streptococci) [mg/kg] | ED50 (Staphylococci; oral) [mg/kg] | ED50 (Staphylococci; sc, subcutaneous) [mg/kg] | MIC (M. tuber. H37Rv) [ng/mL] | MIC (Streptococcus pyogenes) [ng/mL] | ED50 (Diplococci) [mg/kg] | Percent Survival (M. tuberculosis; daily dose 0.5 mg) [%] | Average Survival Time (M. tuberculosis; daily dose 0.5 mg) [days] | Percent Survival (M. tuberculosis; daily dose 5.0 mg) [%] | Average Survival Time (M. tuberculosis; daily dose 5.0 mg) [days] | MIC (Staphylococcus aureus) [ng/mL] | antibiotic properties / antibiotic activity [2]
1 | COC1C=COC2(C)Oc3c(C)c(O)c4c(O)c(c(SC)c(O)c4c3C2=O)NC(=O)C(C)=CC=CC(C)C(O)C(C)C(O)C(C)C(OC(C)=O)C1C (stereo not shown) [3-methylthiorifamycin SV] | 1.9 to 3.9 (≈ 2.55 to 5.24 nM) | 0.22 | 1.1 | 0.65 | 15 (≈ 20.2 nM) | 1.9 (≈ 2.55 nM) | 8 | 70 | 44.3 | 100 | 53.0 | 1.9 (≈ 2.55 nM) | –
2 | COC1C=COC2(C)Oc3c(C)c(O)c4c(c3C2=O)C(=O)C(SC)=C(NC(=O)C(C)=CC=CC(C)C(O)C(C)C(O)C(C)C(OC(C)=O)C1C)C4=O (stereo not shown) [3-methylthiorifamycin S] | 1.2 to 3.9 (≈ 1.62 to 5.26 nM) | 0.6 | 1.4 | 0.17 | 6 (≈ 8.09 nM) | 0.9 (≈ 1.21 nM) | > 12.5 | – | – | – | – | 0.4 (≈ 0.539 nM) | –
3 | hexahydro derivative of 3-methylthiorifamycin SV | – | – | – | – | – | – | – | – | – | – | – | – | comparable to those of the parent compounds
4 | hexahydro-3-methylthiorifamycin S | – | – | – | – | – | – | – | – | – | – | – | – | comparable to those of the parent compounds
